From publication PMC12152872, “Molecular glue binding behavior of phosphoantigens to alpaca butyrophilins” (The Journal of Biological Chemistry, 2025)

Assays:
Type in all cases: binding
[1] = target: T1, BTN3A1 and BTN2A1 B30.2 domains (Homo sapiens, UniProt O00481+Q7KYR7); assay: ITC, DMASPP titrated into mixture of BTN2A1 and BTN3A1 B30.[…] (first titration)
T1 construct: BTN2A1 B30.2 in pET28a, Ni-NTA and DEAE; BTN3A1 B30.2 prepared as VpBTN3 B30.2; printed PDB ids are of BTN3A1 B30.2 only

[2] = target: T2, VpBTN2 B30.2 and full-length VpBTN3 B30.2 domain (Vicugna pacos, UniProt A0A345DF50+A0A6J0B3M7); assay: ITC, VpBTN2 B30.[…] titrated into preformed full-length VpBTN3 B30.2-DMASPP complex (second titration); conditions: 25 °C, 25 mM Hepes pH 7.5, 150 mM NaCl; molecular glue; protein-protein KD in presence of DMASPP
T2 construct: gene Btn3; E. coli
T2 sequence (A0A345DF50 323-557 limits assumed): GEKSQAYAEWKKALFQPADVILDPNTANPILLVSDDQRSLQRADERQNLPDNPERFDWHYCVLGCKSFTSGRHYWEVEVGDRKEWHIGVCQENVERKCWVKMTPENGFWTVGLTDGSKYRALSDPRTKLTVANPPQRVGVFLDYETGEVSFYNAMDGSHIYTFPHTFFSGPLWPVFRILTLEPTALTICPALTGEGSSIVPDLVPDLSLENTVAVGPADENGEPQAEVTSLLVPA
T2 sequence (A0A6J0B3M7 311-535): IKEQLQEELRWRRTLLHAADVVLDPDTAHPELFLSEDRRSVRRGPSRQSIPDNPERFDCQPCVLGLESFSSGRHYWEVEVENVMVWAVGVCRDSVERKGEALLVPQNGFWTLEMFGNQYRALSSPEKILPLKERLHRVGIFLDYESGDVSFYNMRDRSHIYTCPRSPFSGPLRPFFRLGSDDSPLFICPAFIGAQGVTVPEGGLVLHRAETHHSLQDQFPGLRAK

[3] = target: T3, VpBTN2 B30.2 and VpBTN3 B30.2 ΔC domains (Vicugna pacos, UniProt A0A345DF50+A0A6J0B3M7); assay: ITC, DMASPP titrated into mixture of VpBTN2 and VpBTN3 B30.[…] ΔC (first titration)
T3 construct: gene Btn3; mixture of VpBTN2 B30.2 (residues 311-535) and VpBTN3 B30.2 ΔC (residues 323-513), mixed 2:1; E. coli BL21(DE3), His tags removed by TEV; VpBTN2 site R475, T508, V509
T3 sequence (A0A345DF50 323-513, stated change not applied): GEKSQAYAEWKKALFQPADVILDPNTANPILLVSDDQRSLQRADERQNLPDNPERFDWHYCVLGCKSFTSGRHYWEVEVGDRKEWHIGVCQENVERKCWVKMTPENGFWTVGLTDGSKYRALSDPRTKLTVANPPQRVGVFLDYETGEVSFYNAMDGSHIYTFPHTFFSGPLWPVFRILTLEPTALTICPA
T3 sequence (A0A6J0B3M7 311-535, stated change not applied): as the sequence (A0A6J0B3M7 311-535) above

VpBTN3 B30.2 ΔC = target: T4, VpBTN3 B30.2 ΔC (Vicugna pacos, UniProt A0A345DF50); assay: ITC; crystal structure
T4 construct: gene Btn3; intracellular B30.2 domain, residues 323-513, C-terminal loop truncated; pET32a, E. coli BL21(DE3); N-terminal His tag removed by TEV; pocket H381, H408, W421, K423, R442, R448, R499
T4 sequence (A0A345DF50 323-513, stated change not applied): as the sequence (A0A345DF50 323-513, stated change not applied) above

[4] = target: T1, BTN3A1 and BTN2A1 B30.2 domains; assay: ITC, second titration (BTN2A1 B30.[…] into BTN3A1 B30.2-DMASPP complex); conditions: 25 °C, 25 mM Hepes pH 7.5, 150 mM NaCl; molecular glue; protein-protein KD in presence of DMASPP
[5] = target: T3, VpBTN2 B30.2 and VpBTN3 B30.2 ΔC domains; assay: ITC, VpBTN2 B30.[…] titrated into preformed VpBTN3 B30.[…] ΔC-DMASPP complex (second titration); conditions: 25 °C, 25 mM Hepes pH 7.5, 150 mM NaCl; molecular glue; protein-protein KD in presence of DMASPP

T1 sequence (O00481 328-513): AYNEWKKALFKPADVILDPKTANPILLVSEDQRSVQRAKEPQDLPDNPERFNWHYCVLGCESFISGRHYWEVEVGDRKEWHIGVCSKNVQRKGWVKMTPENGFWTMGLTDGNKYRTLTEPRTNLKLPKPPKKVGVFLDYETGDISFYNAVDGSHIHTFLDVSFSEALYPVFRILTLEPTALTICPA
T1 sequence (Q7KYR7 310-506 limits assumed): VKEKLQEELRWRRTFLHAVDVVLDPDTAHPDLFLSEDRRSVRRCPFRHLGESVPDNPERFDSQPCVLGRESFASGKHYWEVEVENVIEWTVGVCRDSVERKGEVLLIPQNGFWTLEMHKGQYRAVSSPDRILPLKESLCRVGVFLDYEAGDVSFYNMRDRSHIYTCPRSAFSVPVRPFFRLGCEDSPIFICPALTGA

- Kd [1]: 8.19 µM
- KD [2]: 15.2 µM
- Kd [3]: 4.34 µM
- Kd (VpBTN3 B30.2 ΔC): 44.7 µM
- KD [4]: 18.8 µM
- KD [5]: 22.8 µM
Structure (SMILES): CC(C)=CCSP(=O)(O)OP(=O)(O)O [DMASPP]
